Source: paper PMC4763415, “Platinum (IV)-fatty acid conjugates overcome inherently and acquired Cisplatin resistant cancer cell lines: an in-vitro study” (BMC Cancer, 2016)
Values joined by “and” are separate entries in the source; they are usually repeats but may differ in a detail not shown here. Equal entries are not always repeated. Where two headings read alike, the source gives them in different places.

Columns and labels:
[1] = tested on: human embryonic kidney cell line 293 T (HEK293T); test: XTT cell proliferation assay, HEK293T; format: cell-based; details: for IC50: Table 2, XTT, non-cancerous cells; for selectivity: potency against A2780 compared to HEK293T: ratio of XTT IC50s
Experimental: (§1) (2,3-bis-(2-methoxy-4-nitro-5-sulfophenyl)-2H-tetrazolium-5-carboxanilide) (XTT) assay was used as previously described to evaluate the cytotoxicity of the different Cisplatin derivatives. Briefly, cells (1.5 × 10^4) were plated in RPMI 1640 medium using 96-well plates for 24 h, and then treated for an additional 72 h with the different Cisplatin derivatives. A total of 50 μl of XTT solution were added to each well and incubated for 3 h at 37 °C. The optical density was measured by a multi-well plate spectrophotometer at 450 nanometers with a references’ wavelength of 630 nm. The concentrations inhibiting cell proliferation by 50 % (IC50s) of all tested derivatives were calculated. The experiment was performed in triplicate, and standard deviations were also calculated.

[2] = tested on: PARP cleavage in A2780 cells; test: Apoptosis assay: PARP cleavage by immunoblot, A2780; format: cell-based, human; details: 30 h treatment
Experimental: (§2) To monitor apoptosis potential of Cisplatin derivatives we followed cleavage of poly ADP ribose polymerase (PARP) protein [18]. Briefly, cells (2 × 10^5 cells/ml) were treated with Cisplatin derivatives for the indicated time. Cells were collected, washed once with cold PBS, and lysed in buffer [10 mMTris-HCl (pH 7.4), 100 mMNaCl, 1 mM EDTA, 1 mM EGTA, 1 mM NaF, 20 mM Na4P2O7, 2 mM Na3VO4, 1 % Triton x-100, 10 % Glycerol, 0.1 % sodium dodecyl sulfate (SDS), 0.5 % deoxycholate, 1 mM phenylmethylsulfonyl fluoride (PMSF), for 30 min at 4 °C. Cell lysate supernatants (40 μg protein/each) were resolved on 8 % SDS-polyacrylamide gel electrophoresis, transferred to nitrocellulose membranes, and analyzed by immune-blotting with an anti-cleaved PARP antibody (Cell signaling technology, USA ). Anti α-tubulin antibody (Santa Cruz Co., CA, USA) was used as a loading control.

[3] = tested on: A2780cisR (Cisplatin resistant ovarian cancer cells); test: XTT cell proliferation assay, A2780cisR; format: cell-based, human; details: for IC50: Table 1, XTT, 72 h treatment, read-out: IC50 anti-proliferative activity A2780cisR; for increased anti-proliferative potency compared to Cisplatin, A2780cisR: ratio of IC50s vs Cisplatin
Experimental: as §1

[4] = tested on: cleaved PARP in A2780cisR cells; test: PathScan cleaved PARP (Asp214) sandwich ELISA, A2780cisR; format: cell-based, human; details: 30 h
Experimental: Cell lysates prepared from treated ovarian cancer cells (30 h) were used for quantitative measurement of cleaved PARP according to manufacturer’s instructions (Cell signaling technology, USA). In our experiments, 20 μg of total lysate proteins from each sample were utilized.

A2780cisR cells = test: Clonigenicity assay (soft agar), A2780cisR; format: cell-based, human; details: 2 weeks, read-out: IC50 of clonigenicity inhibition A2780cisR
Experimental: (§3) Clonigenicity assay was performed as previously describe. Briefly, cells (1 × 10^4) in 1 ml RPMI 10 % FBS medium were diluted in 1 ml of 0.6 % agar to give a final agar concentration of 0.3 % agar. The cells-agar mixture was poured over a hardened agar base in wells of 12-well plates and allowed to solidify. Once the top layer solidified, 1 ml of medium containing different treatments was placed on top to keep the agar moist. The cells were grown at 37 °C in a 5 % CO2 humidified atmosphere until colonies were visible (2 weeks). The plates were stained for 4 h with 5 mg/ml 3-(4,5-dimethylthiazol-2-yl)-2,5-diphenyltetrazolium bromide (MTT), and the dye was extracted with 1 ml solubilization buffer (20 % SDS, 50 % N,N-dimethyl-formamide, 25 mM HCL) for 24 h. The optical density was measured at 570 nm wavelength with a reference wavelength of 630 nm.

[5] = tested on: human foreskin fibroblast cells (HFF); test: XTT cell proliferation assay, HFF; format: cell-based; details: for IC50: Table 2, XTT, non-cancerous cells; for ratio of IC50s against none cancerous cells (HFF) to the cancerous cell line (A2780): ratio of XTT IC50s
Experimental: as §1

[6] = tested on: human embryonic kidney cell line 293A (HEK293A); test: XTT cell proliferation assay, HEK293A; format: cell-based; details: for IC50: Table 2, XTT, non-cancerous cells; for selectivity: potency against A2780 compared to HEK293A: ratio of XTT IC50s
Experimental: as §1

A2780 cells = test: Clonigenicity assay (soft agar), A2780; format: cell-based, human; details: for clonigenicity IC50s values lower than Cisplatin: ovarian cancer cell lines tested (A2780, A2780cisR); for IC50: soft agar, 2 weeks, read-out: IC50 of clonigenicity inhibition A2780
Experimental: as §3

[7] = tested on: K562; chronic myelogenous leukemia (CML) cell lines; test: XTT cell proliferation assay, K562; format: cell-based; details: for IC50: Table 1, XTT, 72 h treatment, read-out: IC50 anti-proliferative activity K562; for enhanced anti-CML activity compared to Cisplatin, K562: ratio of IC50s vs Cisplatin
Experimental: as §1

[8] = tested on: PARP cleavage in A2780cisR cells; test: Apoptosis assay: PARP cleavage by immunoblot, A2780cisR; format: cell-based, human; details: for concentration causing significant PARP cleavage, A2780cisR: 30 h treatment
Experimental: as §2

[9] = tested on: A2780 (Cisplatin sensitive ovarian cancer cells); test: XTT cell proliferation assay, A2780; format: cell-based, human; details: for IC50: XTT
Experimental: as §1

[10] = Table 1, 72 h treatment, read-out: IC50 anti-proliferative activity A2780

Row | Compound | IC50 [1] | selectivity: potency against A2780 compared to HEK293T [1] | concentration causing significant PARP cleavage, A2780 [2] | IC50 [3] | increased anti-proliferative potency compared to Cisplatin, A2780cisR [3] | increase in levels of cleaved PARP compared to untreated sample ([4]; 1 microM) | increase in levels of cleaved PARP compared to untreated sample ([4]; 5 microM) | increase in levels of cleaved PARP compared to untreated sample ([4]; 25 microM) | IC50 (A2780cisR cells) | IC50 [5] | ratio of IC50s against none cancerous cells (HFF) to the cancerous cell line (A2780) [5] | IC50 [6] | selectivity: potency against A2780 compared to HEK293A [6] | clonigenicity IC50s values lower than Cisplatin (A2780 cells) | IC50 (A2780 cells) | IC50 [7] | enhanced anti-CML activity compared to Cisplatin, K562 [7] | concentration causing significant PARP cleavage, A2780cisR [8] | IC50 [9, 10] | IC50 ([9]; Table 2, read-out: IC50 A2780) | further results
1 | CCCCCCCC(=O)[O][Pt]([NH2])([NH2])([Cl])([Cl])[O]C(=O)CCCCCCC [RJY13, Cis, cis, trans-[diamminedichloro-bis-octanoatoplatinum (IV)]] | 0.5 µM | about 10 fold | 5 µM | 0.57 µM | 33 fold | 4 fold | 34 fold | 37 fold | 0.01 µM | 2.4 µM | 30 | 0.7 µM | about 10 fold | 20–30 folds | 0.01 µM | 0.7 µM | 7 folds | 5 µM | 0.08 µM | 0.08 µM | increased anti-proliferative potency compared to Cisplatin, A2780 ([9]; ratio of IC50s vs Cisplatin): 16 fold
2 | N.N.[Cl][Pt][Cl] [Cisplatin, cis-Diamminedichloroplatinum (II)] | 3.2 µM |  | 25 µM | 19.2 µM |  |  |  | 2.4 fold | 4.2 µM | 84 µM | 63 | 16.3 µM |  |  | 2.3 µM | 5.2 µM |  |  | 1.3 µM | 1.3 µM | PARP cleavage in A2780cisR ([8]; 30 h, concentrations below 100 microM): very minimal cleavage of PARP
3 | CCCCCCCCCCCC(=O)[O][Pt]([NH2])([NH2])([Cl])([Cl])[O]C(=O)CCCCCCCCCCC [RJY6, Cis, cis, trans-[diamminedichloro-bis-lauratoplatinum(IV)]] | 11.8 µM | 16 fold | above 25 microM | 3.3 µM | 5-6 fold | 2 fold | 3 fold | 21 fold | 0.013 µM | 82 µM | 117 and 117.2 | 17.3 µM | 24 fold | 20–30 folds | 0.015 µM | 1.3 µM | 4 folds | above 25 microM | 0.7 µM | 0.7 µM | 
4 | N.N.O=C([O-])C1(C(=O)[O-])CCC1.[Pt+2] [Carboplatin, reference compound] | 45 µM |  |  | 109 µM |  |  |  |  |  |  |  | 105 µM |  |  |  |  |  |  | 16.8 µM | 16.8 µM | 
5 | O=C1[O][Pt]2([NH][C@@H]3CCCC[C@H]3[NH]2)[O]C1=O [Oxaliplatin, reference compound] |  |  |  | 15.5 µM |  |  |  |  | 1.6 µM |  |  |  |  |  | 0.18 µM | 3.2 µM |  |  | 12.7 µM |  | 
6 | CCCCCCCC/C=C\CCCCCCCC(=O)[O][Pt]([NH2])([NH2])([Cl])([Cl])[O]C(=O)CCCCCCC/C=C\CCCCCCCC [RJY3] |  |  |  | 15 µM |  |  |  |  |  |  |  |  |  |  | 0.07 µM | 9.4 µM |  |  | > 20 µM |  | 
